Laboratory results from ChEMBL document CHEMBL3596148, “Meridianin derivatives as potent Dyrk1A inhibitors and neuroprotective agents” (Bioorg Med Chem Lett, 2015).

Columns and labels:
[1] = Cytotoxicity against human SH-SY5Y cells assessed as cell viability at 30 uM after 24 hrs by MTT assay relative to control; format: cell-based; settings: read-out: Activity
[2] = target: Protein kinase C alpha type (Homo sapiens) (UniProt P17252); assay: Inhibition of PKCalpha (unknown origin) at 0.5 uM relative to control
[3] = target: Insulin-like growth factor 1 receptor (Homo sapiens) (UniProt P08069); assay: Inhibition of IGF-1R (unknown origin) at 0.5 uM relative to control
Chain of Insulin-like growth factor 1 receptor (Homo sapiens) (P08069 31-736 limits assumed): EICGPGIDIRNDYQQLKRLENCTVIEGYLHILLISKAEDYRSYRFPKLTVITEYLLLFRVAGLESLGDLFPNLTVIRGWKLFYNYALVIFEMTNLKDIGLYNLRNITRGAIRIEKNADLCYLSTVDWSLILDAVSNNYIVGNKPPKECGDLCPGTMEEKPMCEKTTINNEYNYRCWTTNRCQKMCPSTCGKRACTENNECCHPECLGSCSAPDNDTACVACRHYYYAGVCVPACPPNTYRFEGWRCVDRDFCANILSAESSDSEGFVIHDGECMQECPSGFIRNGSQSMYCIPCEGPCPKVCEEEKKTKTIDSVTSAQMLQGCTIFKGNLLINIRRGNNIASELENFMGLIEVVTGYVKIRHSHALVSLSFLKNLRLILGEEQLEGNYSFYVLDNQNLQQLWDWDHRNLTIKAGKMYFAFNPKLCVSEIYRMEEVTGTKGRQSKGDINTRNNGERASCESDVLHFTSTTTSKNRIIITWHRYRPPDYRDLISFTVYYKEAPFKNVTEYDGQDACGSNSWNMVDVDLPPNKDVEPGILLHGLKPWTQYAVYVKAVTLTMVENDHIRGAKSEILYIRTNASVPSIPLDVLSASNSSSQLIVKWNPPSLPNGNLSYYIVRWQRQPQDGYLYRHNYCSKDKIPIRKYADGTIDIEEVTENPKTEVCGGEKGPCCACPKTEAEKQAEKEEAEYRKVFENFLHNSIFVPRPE
Chain of Insulin-like growth factor 1 receptor (Homo sapiens) (P08069 741-1367 limits assumed): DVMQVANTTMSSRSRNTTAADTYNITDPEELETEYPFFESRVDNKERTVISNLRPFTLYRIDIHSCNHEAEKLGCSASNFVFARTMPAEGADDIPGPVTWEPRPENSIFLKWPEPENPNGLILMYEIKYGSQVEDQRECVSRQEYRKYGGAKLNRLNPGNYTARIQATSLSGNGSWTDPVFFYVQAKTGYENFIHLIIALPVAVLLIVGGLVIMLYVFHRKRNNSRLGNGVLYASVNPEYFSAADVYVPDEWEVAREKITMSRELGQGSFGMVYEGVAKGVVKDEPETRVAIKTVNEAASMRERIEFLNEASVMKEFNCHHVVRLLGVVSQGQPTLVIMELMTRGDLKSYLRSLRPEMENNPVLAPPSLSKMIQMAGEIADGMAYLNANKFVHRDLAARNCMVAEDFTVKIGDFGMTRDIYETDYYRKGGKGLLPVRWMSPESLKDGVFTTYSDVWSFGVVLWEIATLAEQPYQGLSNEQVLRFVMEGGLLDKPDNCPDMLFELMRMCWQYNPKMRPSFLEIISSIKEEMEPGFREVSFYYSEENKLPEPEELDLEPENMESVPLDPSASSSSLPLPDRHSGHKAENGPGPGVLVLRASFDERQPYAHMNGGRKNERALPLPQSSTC

[4] = target: Aurora kinase B (Homo sapiens) (UniProt Q96GD4); assay: Inhibition of Aurora B (unknown origin) at 0.5 uM relative to control
Chain of Aurora kinase B (Homo sapiens) (Q96GD4 whole entry): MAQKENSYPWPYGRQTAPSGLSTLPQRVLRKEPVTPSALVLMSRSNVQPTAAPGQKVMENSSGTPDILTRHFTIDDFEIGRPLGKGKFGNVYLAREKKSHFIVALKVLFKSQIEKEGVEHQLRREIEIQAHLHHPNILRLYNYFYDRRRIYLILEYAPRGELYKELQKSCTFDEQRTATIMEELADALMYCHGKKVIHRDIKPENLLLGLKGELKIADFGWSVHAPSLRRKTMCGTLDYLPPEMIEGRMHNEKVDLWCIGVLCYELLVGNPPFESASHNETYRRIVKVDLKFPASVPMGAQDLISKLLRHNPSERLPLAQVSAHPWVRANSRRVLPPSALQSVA

[5] = target: T1, Inhibitor of nuclear factor kappa-B kinase subunit beta (Homo sapiens) (UniProt O14920); assay: Inhibition of IKKbeta (unknown origin) at 0.5 uM relative to control
T1 sequence (whole entry): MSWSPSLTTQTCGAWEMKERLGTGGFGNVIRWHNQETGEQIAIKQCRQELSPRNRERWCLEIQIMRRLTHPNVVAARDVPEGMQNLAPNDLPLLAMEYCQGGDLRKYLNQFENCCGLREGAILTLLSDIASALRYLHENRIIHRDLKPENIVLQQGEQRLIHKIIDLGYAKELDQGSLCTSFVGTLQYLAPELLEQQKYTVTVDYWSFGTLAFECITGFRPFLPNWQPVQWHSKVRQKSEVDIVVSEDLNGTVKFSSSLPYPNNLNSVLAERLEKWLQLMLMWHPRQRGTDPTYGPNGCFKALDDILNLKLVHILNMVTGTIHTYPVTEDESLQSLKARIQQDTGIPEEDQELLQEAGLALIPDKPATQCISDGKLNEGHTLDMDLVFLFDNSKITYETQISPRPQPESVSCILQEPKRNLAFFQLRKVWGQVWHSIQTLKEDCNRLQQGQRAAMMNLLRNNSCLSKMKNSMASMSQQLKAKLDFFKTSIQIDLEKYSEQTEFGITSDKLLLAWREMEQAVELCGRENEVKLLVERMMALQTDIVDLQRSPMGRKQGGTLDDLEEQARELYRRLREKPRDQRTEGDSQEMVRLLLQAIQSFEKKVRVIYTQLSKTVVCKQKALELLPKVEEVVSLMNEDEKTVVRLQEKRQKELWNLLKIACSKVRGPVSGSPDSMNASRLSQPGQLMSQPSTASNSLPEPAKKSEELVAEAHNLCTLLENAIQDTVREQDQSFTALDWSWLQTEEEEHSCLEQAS

[6] = target: RAC-beta serine/threonine-protein kinase (Homo sapiens) (UniProt P31751); assay: Inhibition of PKBbeta (unknown origin) at 0.5 uM relative to control
Chain of RAC-beta serine/threonine-protein kinase (Homo sapiens) (P31751 whole entry): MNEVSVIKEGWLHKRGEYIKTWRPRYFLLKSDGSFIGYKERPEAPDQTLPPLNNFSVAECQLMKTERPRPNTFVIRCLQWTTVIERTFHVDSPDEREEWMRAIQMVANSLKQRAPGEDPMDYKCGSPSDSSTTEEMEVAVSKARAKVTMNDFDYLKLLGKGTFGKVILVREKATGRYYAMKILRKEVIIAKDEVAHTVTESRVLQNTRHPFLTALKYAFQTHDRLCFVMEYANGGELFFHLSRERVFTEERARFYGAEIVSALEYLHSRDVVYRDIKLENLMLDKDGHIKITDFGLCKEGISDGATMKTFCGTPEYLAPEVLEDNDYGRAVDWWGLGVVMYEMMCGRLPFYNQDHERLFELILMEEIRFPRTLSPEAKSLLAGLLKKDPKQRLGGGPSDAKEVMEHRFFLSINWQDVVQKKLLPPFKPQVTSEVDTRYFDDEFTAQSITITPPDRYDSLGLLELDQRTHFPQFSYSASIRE

[7] = target: Glycogen synthase kinase-3 beta (Homo sapiens) (UniProt P49841); assay: Inhibition of GSK3beta (unknown origin) at 0.5 uM relative to control
Chain of Glycogen synthase kinase-3 beta (Homo sapiens) (P49841 whole entry, looked up): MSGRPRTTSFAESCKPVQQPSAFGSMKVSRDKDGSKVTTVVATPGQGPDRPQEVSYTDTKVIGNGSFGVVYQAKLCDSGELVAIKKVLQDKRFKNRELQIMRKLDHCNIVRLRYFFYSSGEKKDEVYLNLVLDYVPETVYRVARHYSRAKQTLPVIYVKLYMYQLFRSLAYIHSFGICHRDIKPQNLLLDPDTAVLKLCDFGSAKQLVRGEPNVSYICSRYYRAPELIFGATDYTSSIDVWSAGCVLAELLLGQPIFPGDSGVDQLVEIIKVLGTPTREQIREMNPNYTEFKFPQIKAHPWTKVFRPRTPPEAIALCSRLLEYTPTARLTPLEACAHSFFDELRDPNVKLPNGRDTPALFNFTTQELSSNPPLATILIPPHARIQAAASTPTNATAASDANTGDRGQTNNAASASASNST

[8] = target: T2, Aurora kinase A (Homo sapiens) (UniProt O14965); assay: Inhibition of Aurora A (unknown origin) at 0.5 uM relative to control
T2 sequence (whole entry): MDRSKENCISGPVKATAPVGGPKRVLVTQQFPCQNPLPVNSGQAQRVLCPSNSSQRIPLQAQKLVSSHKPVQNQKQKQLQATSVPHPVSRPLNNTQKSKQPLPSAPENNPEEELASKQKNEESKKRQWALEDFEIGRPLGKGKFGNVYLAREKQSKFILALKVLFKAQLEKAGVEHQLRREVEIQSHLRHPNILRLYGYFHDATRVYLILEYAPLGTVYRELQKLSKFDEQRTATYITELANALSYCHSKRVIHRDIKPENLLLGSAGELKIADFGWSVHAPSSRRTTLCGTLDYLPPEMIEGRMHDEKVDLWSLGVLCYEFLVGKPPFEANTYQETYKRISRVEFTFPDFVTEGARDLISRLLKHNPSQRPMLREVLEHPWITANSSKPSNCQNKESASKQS

[9] = target: AMP-activated protein kinase, AMPK (Homo sapiens) (UniProt P54646+O43741+P54619+Q9UGJ0+Q9Y478+Q13131+Q9UGI9); assay: Inhibition of AMPK (unknown origin) at 0.5 uM relative to control; format: protein-complex assay
[10] = target: Insulin receptor (Homo sapiens) (UniProt P06213); assay: Inhibition of IR (unknown origin) at 0.5 uM relative to control
[11] = target: Vascular endothelial growth factor receptor 1 (Homo sapiens) (UniProt P17948); assay: Inhibition of VEGFR1 (unknown origin) at 0.5 uM relative to control
[12] = target: RAC-alpha serine/threonine-protein kinase (Homo sapiens) (UniProt P31749); assay: Inhibition of PKBalpha (unknown origin) at 0.5 uM relative to control
[13] = target: Cyclin-dependent kinase 2 (Homo sapiens) (UniProt P24941); assay: Inhibition of CDK2 (unknown origin) at 0.5 uM relative to control
[14] = target: Casein kinase I isoform alpha (Homo sapiens) (UniProt P48729); assay: Inhibition of CK1 (unknown origin) at 0.5 uM relative to control
[15] = target: Tyrosine-protein kinase ABL1 (Homo sapiens) (UniProt P00519); assay: Inhibition of Abl (unknown origin) at 0.5 uM relative to control
Chain of Tyrosine-protein kinase ABL1 (Homo sapiens) (P00519 whole entry): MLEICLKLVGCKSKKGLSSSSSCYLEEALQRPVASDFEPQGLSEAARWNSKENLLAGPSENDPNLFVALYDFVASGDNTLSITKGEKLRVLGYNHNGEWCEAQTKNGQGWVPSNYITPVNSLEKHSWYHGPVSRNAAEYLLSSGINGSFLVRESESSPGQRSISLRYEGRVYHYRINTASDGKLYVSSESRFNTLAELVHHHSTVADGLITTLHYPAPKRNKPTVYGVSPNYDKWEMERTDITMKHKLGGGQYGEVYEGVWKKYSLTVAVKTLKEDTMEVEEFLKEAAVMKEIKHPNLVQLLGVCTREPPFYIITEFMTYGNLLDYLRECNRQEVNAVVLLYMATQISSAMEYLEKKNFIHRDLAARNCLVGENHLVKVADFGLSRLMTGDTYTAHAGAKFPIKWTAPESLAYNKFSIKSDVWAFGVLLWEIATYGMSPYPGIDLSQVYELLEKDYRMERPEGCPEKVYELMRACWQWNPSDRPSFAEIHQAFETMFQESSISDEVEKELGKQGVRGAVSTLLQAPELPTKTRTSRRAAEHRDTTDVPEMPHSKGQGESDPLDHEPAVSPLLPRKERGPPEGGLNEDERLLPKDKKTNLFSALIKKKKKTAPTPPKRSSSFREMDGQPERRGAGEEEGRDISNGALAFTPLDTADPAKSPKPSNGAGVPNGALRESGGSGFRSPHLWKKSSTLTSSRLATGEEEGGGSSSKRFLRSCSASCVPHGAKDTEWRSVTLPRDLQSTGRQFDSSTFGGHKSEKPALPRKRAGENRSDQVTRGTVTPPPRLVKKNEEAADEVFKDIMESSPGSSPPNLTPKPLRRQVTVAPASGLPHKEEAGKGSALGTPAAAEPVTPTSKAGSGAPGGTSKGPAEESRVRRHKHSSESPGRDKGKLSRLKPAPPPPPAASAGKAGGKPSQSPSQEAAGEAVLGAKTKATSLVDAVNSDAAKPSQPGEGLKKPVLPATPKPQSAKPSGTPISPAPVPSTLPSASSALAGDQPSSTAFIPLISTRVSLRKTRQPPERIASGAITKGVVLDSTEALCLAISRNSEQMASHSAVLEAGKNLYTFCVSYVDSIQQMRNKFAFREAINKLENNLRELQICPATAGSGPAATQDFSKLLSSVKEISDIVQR

[16] = target: Cyclin-dependent kinase 9 (Homo sapiens) (UniProt P50750); assay: Inhibition of CDK9 (unknown origin) at 0.5 uM relative to control
Chain of Cyclin-dependent kinase 9 (Homo sapiens) (P50750 whole entry): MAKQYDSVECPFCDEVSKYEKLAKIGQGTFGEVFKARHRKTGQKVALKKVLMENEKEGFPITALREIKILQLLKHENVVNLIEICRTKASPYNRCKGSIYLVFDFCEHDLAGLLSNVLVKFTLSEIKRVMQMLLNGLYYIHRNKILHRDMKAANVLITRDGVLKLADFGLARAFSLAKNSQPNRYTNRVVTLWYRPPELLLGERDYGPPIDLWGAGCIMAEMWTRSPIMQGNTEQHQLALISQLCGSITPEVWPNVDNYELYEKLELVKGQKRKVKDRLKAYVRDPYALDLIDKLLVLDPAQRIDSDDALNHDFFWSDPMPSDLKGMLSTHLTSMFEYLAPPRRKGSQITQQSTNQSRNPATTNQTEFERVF

SH-SY5Y [17] = assay: cells; settings: Homo sapiens, 24 h
SH-SY5Y [18] = assay: Neuroprotective activity against glutamate-induced neurotoxicity in human SH-SY5Y cells assessed as cell viability at 10 uM incubated for 30 mins prior to glutamate challenge measured after 24 hrs by MTT assay (reference value: 73.8 +/- 4.5%); format: functional; settings: read-out: Activity
SH-SY5Y [19] = assay: Neuroprotective activity against glutamate-induced neurotoxicity in human SH-SY5Y cells assessed as cell viability at 50 uM incubated for 30 mins prior to glutamate challenge measured after 24 hrs by MTT assay (reference value: 73.8 +/- 4.5%); format: functional; settings: read-out: Activity

Row | SMILES | viability at 24 h, 30 µM [1] | also measured
1 | Nc1nccc(-c2cn(Cc3c4ccccc4cc4ccccc34)c3ccccc23)n1 | 96% | –
2 | Nc1nccc(-c2cn(CN3C(=O)c4ccccc4C3=O)c3ccccc23)n1 | 101% | –
3 | Nc1nccc(-c2cn(S(=O)(=O)c3ccc4c(c3)OCCO4)c3ccccc23)n1 | 59.4% | –
4 | Cc1cc(C)c(S(=O)(=O)n2cc(-c3ccnc(N)n3)c3cc(Br)ccc32)c(C)c1 | 109% | –
5 | CN1CCN(C(=O)n2cc(-c3ccnc(N)n3)c3cc(Br)ccc32)CC1 | 91.8% | –
6 | Cc1noc(C)c1Cn1cc(-c2ccnc(N)n2)c2ccccc21 | 88.5% | inhibition [2]: 36.9%; inhibition [3]: 0%; inhibition [4]: 10.1%; inhibition [5]: 3%; inhibition [6]: 0%; inhibition [7]: 6.1%; inhibition [8]: 0%; inhibition [9]: 9.5%; inhibition [10]: 17.7%; inhibition [11]: 13.5%; inhibition [12]: 10.9%; inhibition [13]: 0%; inhibition [14]: 22.7%; inhibition [15]: 6.3%; inhibition [16]: 14%
7 | Cc1cc(C)c(S(=O)(=O)n2cc(-c3ccnc(N)n3)c3ccccc32)c(C)c1 | 40% | –
8 | Nc1nccc(-c2cn(Cc3ccc(Cl)s3)c3ccccc23)n1 | 115% | –
9 | Nc1nccc(-c2cn(S(=O)(=O)c3cccc(C(F)(F)F)c3)c3ccccc23)n1 | 76.1% | –
10 | Nc1nccc(-c2cn(C(=O)c3ccccc3)c3ccccc23)n1 | 106% | –
11 | CC(=O)Nc1ccc(S(=O)(=O)n2cc(-c3ccnc(N)n3)c3cc(Br)ccc32)cc1 | 71.6% | –
12 | Nc1nccc(-c2cn(Cc3ccc(Cl)s3)c3ccc(Br)cc23)n1 | 24% | –
13 | Cc1noc(C)c1Cn1cc(-c2ccnc(N)n2)c2cc(Br)ccc21 | 83.1% | –
14 | COc1ccc(S(=O)(=O)n2cc(-c3ccnc(N)n3)c3ccccc32)cc1OC | 127% | –
15 | Nc1nccc(-c2cn(S(=O)(=O)c3ccc(Cl)cc3Cl)c3ccccc23)n1 | 55.4% | –
16 | Nc1nccc(-c2cn(Cc3c4ccccc4cc4ccccc34)c3ccc(Br)cc23)n1 | 79.8% | –
17 | CCOc1ccccc1C(=O)n1cc(-c2ccnc(N)n2)c2ccccc21 | 46.6% | –
18 | Nc1nccc(-c2cn(S(=O)(=O)c3ccc4ccccc4c3)c3ccccc23)n1 | 61.6% | –
19 | Nc1nccc(-c2cn(S(=O)(=O)c3ccc4c(c3)OCCO4)c3ccc(Br)cc23)n1 | 112% | –
20 | COCCn1cc(-c2ccnc(N)n2)c2cc(Br)ccc21 | 75.3% | –
21 | Cc1c(C)c(C)c(S(=O)(=O)n2cc(-c3ccnc(N)n3)c3cc(Br)ccc32)c(C)c1C | 107% | –
22 | Nc1nccc(-c2c[nH]c3ccccc23)n1 | 91.4% | inhibition [2]: 8.5%; inhibition [3]: 0%; inhibition [4]: 4.1%; inhibition [5]: 16.6%; inhibition [6]: 0%; inhibition [7]: 0%; inhibition [8]: 5.1%; inhibition [9]: 0%; inhibition [10]: 9.6%; inhibition [11]: 8%; inhibition [12]: 22.3%; inhibition [13]: 0%; inhibition [14]: 0%; inhibition [15]: 7.1%; inhibition [16]: 3.8%
23 | Nc1nccc(-c2cn(S(=O)(=O)c3ccc(C(F)(F)F)cc3[N+](=O)[O-])c3ccc(Br)cc23)n1 | 15.2% | IC50 (SH-SY5Y [17]): 14 µM
24 | Nc1nccc(-c2cn(C(=O)N3CCOCC3)c3ccccc23)n1 | 97.3% | –
25 | Nc1nccc(-c2cn(S(=O)(=O)c3cc(C(F)(F)F)cc(C(F)(F)F)c3)c3ccc(Br)cc23)n1 | 76.4% | –
26 | Nc1nccc(-c2cn(S(=O)(=O)c3cccc(C(F)(F)F)c3)c3ccc(Br)cc23)n1 | 38.8% | –

Row | SMILES | viability at 24 h, 30 µM [1] | also measured
27 | Cc1ccsc1C(=O)n1cc(-c2ccnc(N)n2)c2ccccc21 | 82% | –
28 | Nc1nccc(-c2cn(S(=O)(=O)c3ccc(I)cc3)c3ccccc23)n1 | 57.5% | –
29 | COc1ccc(S(=O)(=O)n2cc(-c3ccnc(N)n3)c3ccccc32)cc1 | 58.8% | –
30 | Nc1nccc(-c2cn(S(=O)(=O)c3ccc([N+](=O)[O-])cc3)c3ccc(Br)cc23)n1 | 59% | –
31 | Nc1nccc(-c2cn(S(=O)(=O)c3ccc(Br)cc3)c3ccccc23)n1 | 91.4% | –
32 | COc1ccc(S(=O)(=O)n2cc(-c3ccnc(N)n3)c3cc(Br)ccc32)cc1 | 99% | –
33 | Nc1nccc(-c2cn(C(=O)c3ccccc3)c3ccc(Br)cc23)n1 | 65.1% | viability at 10 µM (SH-SY5Y [18]): 93.2%; viability at 50 µM (SH-SY5Y [19]): 94.1%; IC50 (SH-SY5Y [17]): > 100 µM
34 | Nc1nccc(-c2cn(S(=O)(=O)c3ccc(F)cc3F)c3ccccc23)n1 | 99.1% | –
35 | O=C1NC(c2c[nH]c3ccc(Br)cc23)Nc2ccccc21 (stereo not given) | 41.5% | –
36 | COc1ccc(Br)cc1S(=O)(=O)n1cc(-c2ccnc(N)n2)c2ccccc21 | 96.2% | –
37 | N#Cc1ccc(S(=O)(=O)n2cc(-c3ccnc(N)n3)c3cc(Br)ccc32)cc1 | 106% | –
38 | Nc1nccc(-c2cn(S(=O)(=O)c3cc(C(F)(F)F)cc(C(F)(F)F)c3)c3ccccc23)n1 | 72.4% | –
39 | O=c1[nH]c(-c2c[nH]c3ccc(I)cc23)nc2ccccc12 | 24% | –
40 | Nc1nccc(-c2cn(S(=O)(=O)c3ccc([N+](=O)[O-])cc3)c3ccccc23)n1 | 56% | –
41 | Nc1nccc(-c2cn(S(=O)(=O)c3ccc(C(F)(F)F)cc3)c3ccccc23)n1 | 95.6% | –
42 | CC(C)(C)c1ccc(S(=O)(=O)n2cc(-c3ccnc(N)n3)c3cc(Br)ccc32)cc1 | 109% | –
43 | Cc1c(C)c(C)c(S(=O)(=O)n2cc(-c3ccnc(N)n3)c3ccccc32)c(C)c1C | 49% | –
44 | N#Cc1ccc(S(=O)(=O)n2cc(-c3ccnc(N)n3)c3ccccc32)cc1 | 110% | –
45 | CN1CCN(C(=O)n2cc(-c3ccnc(N)n3)c3ccccc32)CC1 | 82% | –
46 | CC(C)(C)c1ccc(S(=O)(=O)n2cc(-c3ccnc(N)n3)c3ccccc32)cc1 | 86.3% | –
47 | O=C1NC(c2c[nH]c3ccccc23)Nc2ccccc21 (stereo not given) | 83.1% | –
48 | Nc1nccc(-c2cn(S(=O)(=O)c3ccc(C(F)(F)F)cc3)c3ccc(Br)cc23)n1 | 85% | –
49 | COc1cccc(C(=O)n2cc(-c3ccnc(N)n3)c3ccccc32)c1 | 94.6% | –
50 | Nc1nccc(-c2c[nH]c3ccc(Br)cc23)n1 [MERIDIANIN C] | 92.9% | –
51 | Nc1nccc(-c2cn(S(=O)(=O)c3ccc(OC(F)(F)F)cc3)c3ccc(Br)cc23)n1 | 74% | –
